{"source": "patent US12036237B2", "about": "“Bromide source for use in treating autism spectral disorder” (INSERM (INSTITUT NATIONAL DE LA SANTE ET DE LA RECHERCHE …, priority 2016, dated 2024)", "key": {"Fmr1−/− mice [1]": {"test_system": "Fmr1−/− mice", "experiment": "Marble burying test", "type": "in vivo", "conditions": "Fmr1−/− and Fmr1+/+ mice; bromide 250 mg/kg i.p. daily", "description": "(§1) Sodium bromide (anhydrous, Sigma-Aldrich, Saint-Quentin, France) dissolved in saline solution (NaCl, 0.9%) at the dose of 250 or 500 mg/kg, or vehicle (NaCl, 0.9%), was administered intraperitoneally once a day for 19 days in a volume of 20 ml/kg. On testing days, bromide was administered 30 min before behavioural assays. Bumetanide (Tocris, provided by Bio-Techne, Lille, France) dissolved in NaCl 0.9% at the dose of 0.5 mg/kg (Deidda et al, 2015) or vehicle was administered intraperitoneally once a day for 19 days in a volume of 20 ml/kg.\n(§2) Behavioural assays started after a week of daily bromide (or bumetanide) treatment."}, "Oprm1−/− mice [2]": {"test_system": "Oprm1−/− mice", "experiment": "Direct social interaction test"}, "Fmr1−/− mice [3]": {"test_system": "Fmr1−/− mice", "experiment": "Direct social interaction test", "type": "in vivo", "description": "as §1, §2\n(§3) Direct social interaction."}, "Shank3B−/− mice [4]": {"test_system": "Shank3B−/− mice", "experiment": "Direct social interaction test", "type": "in vivo", "description": "as §1, §2, §3"}, "Fmr1−/− mice [5]": {"test_system": "Fmr1−/− mice", "experiment": "Y-maze exploration", "type": "in vivo", "conditions": "bromide 250 mg/kg i.p. daily", "description": "as §1, §2"}, "Shank3B−/− mice [6]": {"test_system": "Shank3B−/− mice", "experiment": "Y-maze exploration", "type": "in vivo", "conditions": "bromide 250 mg/kg i.p. daily", "description": "as §1, §2"}, "Oprm1−/− mice [7]": {"test_system": "Oprm1−/− mice", "experiment": "Y-maze exploration"}, "Fmr1−/− mice [8]": {"test_system": "Fmr1−/− mice", "experiment": "Motor stereotypies scoring", "type": "in vivo", "conditions": "bromide 250 mg/kg i.p. daily", "description": "as §1, §2"}, "[9]": {"conditions": "Example 2, Oprm1−/− mice, bromide 250, 500 mg/kg"}, "[10]": {"conditions": "Example 2, Oprm1−/− mice, bromide 250, 500 mg/kg i.p. daily"}, "[11]": {"conditions": "Example 2, male and female Oprm1−/− mice, bromide 250, 500 mg/kg"}, "[12]": {"conditions": "Oprm1−/− mice, bromide 125, 250, 500 mg/kg i.p. daily vs saline"}, "[13]": {"conditions": "Oprm1−/− mice, bumetanide 0.5 mg/kg"}, "[14]": {"conditions": "social interaction and three-chamber tests, bromide 250 mg/kg"}}, "note": "“Also recorded” adds a separate entry of the source."}
{"compound": "[Br-].[Na+]", "note": "[bromide, Sodium bromide]", "values": [{"measurement": "number of marbles buried", "setting": "Fmr1−/− mice [1]", "value": "reduced"}, {"measurement": "number of nose contacts and following episodes", "setting": "Oprm1−/− mice [2]; Example 2, FIG. 13A, male mutants, both doses", "value": "increased"}, {"measurement": "total amount of time spent in social contact", "setting": "Oprm1−/− mice [2]; Example 2, FIG. 13A, male wild-type and knockout mice", "value": "increased"}, {"measurement": "total time in social contact, number of nose contacts and following episodes", "setting": "Oprm1−/− mice [2]; Example 2, FIG. 13B, female mutant mice only, dose dependent", "value": "increased"}, {"measurement": "number of rearing episodes (activity)", "setting": "Oprm1−/− mice [2]; Example 2, Oprm1 null mice, bromide 250 mg/kg, more in males than females", "value": "increased"}, {"measurement": "social interaction (overall)", "setting": "Oprm1−/− mice [2]; [9]", "value": "able to restore social interaction"}, {"measurement": "number of following episodes", "setting": "Oprm1−/− mice [2]; [10]", "value": "increasing"}, {"measurement": "number, time spent in and duration of nose and paw contacts", "setting": "Oprm1−/− mice [2]; [10]", "value": "increasing"}, {"measurement": "time spent in close contact", "setting": "Oprm1−/− mice [2]; [10]", "value": "increasing"}, {"measurement": "gender influence on the increase of social interaction parameters", "setting": "Oprm1−/− mice [2]; Example 2, Oprm1−/− mice, effects since 250 mg/kg in males, only at the highest dose in females", "value": "more significantly in males than in females"}, {"measurement": "duration of grooming episodes", "setting": "Oprm1−/− mice [2]; [11]", "value": "reduced"}, {"measurement": "number of grooming episodes", "setting": "Oprm1−/− mice [2]; [11]", "value": "reduced"}, {"measurement": "number of grooming episodes occurring immediately after a close contact", "setting": "Oprm1−/− mice [2]; [11]", "value": "reduced"}, {"measurement": "time spent grooming", "setting": "Oprm1−/− mice [2]; [11]", "value": "reduced"}, {"measurement": "direct social interaction (overall)", "setting": "Oprm1−/− mice [2]; [12]", "value": "can restore direct social interaction; also recorded: significantly improved social interaction; also recorded: increased direct social interaction"}, {"measurement": "number of following episodes", "setting": "Oprm1−/− mice [2]; [12]", "value": "dose-dependently increasing; also recorded: increased"}, {"measurement": "number of grooming episodes", "setting": "Oprm1−/− mice [2]; [12]", "value": "reduced"}, {"measurement": "number of grooming episodes occurring immediately after a social contact", "setting": "Oprm1−/− mice [2]; [12]", "value": "reduced"}, {"measurement": "number, time spent in and duration of nose and paw contacts", "setting": "Oprm1−/− mice [2]; [12]", "value": "dose-dependently increasing; also recorded: increased"}, {"measurement": "total time spent in social contact", "setting": "Oprm1−/− mice [2]; [12]", "value": "dose-dependently increasing; also recorded: increased"}, {"measurement": "efficiency on social interaction parameters in male compared with female mice", "setting": "Oprm1−/− mice [2]; Oprm1−/− mice, bromide 250 and 500 mg/kg i.p. daily", "value": "more efficient in increasing social interaction parameters"}, {"measurement": "increases in social contact time, nose contacts, following episodes and paw contacts, bromide compared with bumetanide", "setting": "Oprm1−/− mice [2]; [13]", "value": "bigger increases"}, {"measurement": "suppressive effects on grooming episodes incl. those after a social contact, bromide compared with bumetanide", "setting": "Oprm1−/− mice [2]; [13]", "value": "comparable"}, {"measurement": "beneficial effects on sociability, bromide compared with bumetanide", "setting": "Oprm1−/− mice [2]; Oprm1−/− mice, social interaction and three-chamber tests, bumetanide at 0.5 mg/kg, 0.5 mg/kg", "value": "more significant; also recorded: superior efficacy"}, {"measurement": "number of following episodes", "setting": "Fmr1−/− mice [3]; bromide 250 mg/kg i.p. daily", "value": "normalized"}, {"measurement": "number of grooming episodes", "setting": "Fmr1−/− mice [3]; bromide 250 mg/kg i.p. daily", "value": "reduced"}, {"measurement": "number of grooming episodes occurring after a social contact", "setting": "Fmr1−/− mice [3]; bromide 250 mg/kg i.p. daily", "value": "reduced"}, {"measurement": "number of, time spent in and duration of paw contacts", "setting": "Fmr1−/− mice [3]; bromide 250 mg/kg i.p. daily", "value": "normalized"}, {"measurement": "time spent in nose contact and duration of nose contacts", "setting": "Fmr1−/− mice [3]; bromide 250 mg/kg i.p. daily", "value": "normalized"}, {"measurement": "time spent in social contact", "setting": "Fmr1−/− mice [3]; bromide 250 mg/kg i.p. daily", "value": "normalized"}, {"measurement": "sociability parameters (overall)", "setting": "Fmr1−/− mice [3]; [14]", "value": "efficiently restores"}, {"measurement": "number of following episodes", "setting": "Shank3B−/− mice [4]; bromide 250 mg/kg i.p. daily", "value": "restored to wild-type levels; also recorded: reduced"}, {"measurement": "number of grooming episodes", "setting": "Shank3B−/− mice [4]; bromide 250 mg/kg i.p. daily", "value": "reduced"}, {"measurement": "number of grooming episodes occurring after a social contact", "setting": "Shank3B−/− mice [4]; bromide 250 mg/kg i.p. daily", "value": "reduced"}, {"measurement": "number of, time spent in and duration of paw contacts", "setting": "Shank3B−/− mice [4]; bromide 250 mg/kg i.p. daily", "value": "restored to wild-type levels; also recorded: reduced"}, {"measurement": "time spent in nose contact, number and duration of nose contacts", "setting": "Shank3B−/− mice [4]; bromide 250 mg/kg i.p. daily", "value": "restored to wild-type levels; also recorded: reduced"}, {"measurement": "sociability parameters (overall)", "setting": "Shank3B−/− mice [4]; [14]", "value": "efficiently restores"}, {"measurement": "perseverative same arm returns (cognitive stereotypies)", "setting": "Fmr1−/− mice [5]", "value": "efficiently reduced; also recorded: relieves; also recorded: suppressed"}, {"measurement": "rate of alternate arm returns", "setting": "Shank3B−/− mice [6]; Shank3B line", "value": "not modified"}, {"measurement": "perseverative same arm returns (cognitive stereotypies)", "setting": "Shank3B−/− mice [6]; Shank3B−/− mice", "value": "normalized; also recorded: relieves; also recorded: suppressed"}, {"measurement": "rate of spontaneous alternation", "setting": "Shank3B−/− mice [6]; Shank3B−/− mice", "value": "rescued"}, {"measurement": "ratio of same arm returns (cognitive stereotypies, perseveration)", "setting": "Oprm1−/− mice [7]; [9]", "value": "normalized; also recorded: relieved; also recorded: abolished"}, {"measurement": "spontaneous alternation", "setting": "Oprm1−/− mice [7]; [9]", "value": "restored"}, {"measurement": "number of arm entries (index of general locomotor activity)", "setting": "Oprm1−/− mice [7]; Example 2, both genotypes and genders, bromide 250 mg/kg", "value": "increased"}, {"measurement": "number of alternate arm returns", "setting": "Oprm1−/− mice [7]; Example 2, more in mutants than wild-type, more in females than males", "value": "increased; also recorded: tendency to increase"}, {"measurement": "rate of alternate arm returns", "setting": "Oprm1−/− mice [7]; Oprm1−/− and wild-type, bromide 125, 250, 500 mg/kg i.p. daily", "value": "increasing the rate"}, {"measurement": "perseverative same arm returns (cognitive stereotypies)", "setting": "Oprm1−/− mice [7]; Oprm1−/− mice, bromide 125, 250, 500 mg/kg i.p. daily", "value": "efficiently reduced; also recorded: demonstrated efficacy in reducing; also recorded: dose-dependently decreased; also recorded: significant decrease"}, {"measurement": "number of rearing, grooming or burying episodes", "setting": "Fmr1−/− mice [8]; Fmr1 knockout and wild-type", "value": "no effect"}, {"measurement": "motor stereotypies (overall)", "setting": "Fmr1−/− mice [8]; Fmr1−/− mice", "value": "efficiently reduced; also recorded: relieves"}, {"measurement": "number of circling episodes", "setting": "Fmr1−/− mice [8]; Fmr1−/− mice", "value": "normalized; also recorded: reduced"}, {"measurement": "number of shakes", "setting": "Fmr1−/− mice [8]; Fmr1−/− mice", "value": "normalized; also recorded: reduced"}, {"measurement": "duration of burying events", "setting": "Fmr1−/− mice [8]; all animals (Fmr1 line)", "value": "reduced"}]}
